Laboratory results taken from patent publication US12030908B2, “Antimicrobial compounds, compositions, and uses thereof” (Lakewood Amedex, Inc., priority 2017, dated 2024).

Experiments:
[1] = system: Helicobacter pylori SS1 (CagA+, VacA+); test: Helicobacter pylori stomach infection model in mice, oral treatment; format: in vivo, C57/BL6 mice
Description: The mouse strain used in this study is C57/BL6 ranging from 5-6 weeks in age and 18-22 grams in weight. Mice are housed five to a cage with free access to food and water in accordance with NIH guidelines.
A bacterial strain of Helicobacter pylori SS1 (CagA+, VacA+) is adapted for the mouse model from a human clinical isolate and validated in this infection model.
At 6 days prior to infection, a frozen stock is streaked onto one to two Columbia 5% sheep blood agar plates, and the plates are microaerophilically incubated for 72 hours at 37° C. After 72 hours, the plate growth is subcultured onto five Columbia 5% sheep blood agar plates and is incubated as before. After another 72 hours of incubation, the plates are removed, and the plate growth is suspended in sterile 0.9% saline to an OD of 1.5-2.0 at 530 nm. This OD is approximately equal to 1.0e+09 CFU/mL, which is used to orally infect the mice on all 3 infection days. To infect mice, the mice are orally dosed 0.25 mL of the 1.0e+09 CFU/mL via a 20-22 G gavage needle. Mice need to be fasted only before the first infection.
At 1 week post-infection, mice are treated with Nu-8. Multiple dose antibiotic therapies are administered orally at 0.2 mL/dose. Antibiotics are administered 2 times per day and continued for 7 days. The control group is administered the vehicle alone.
Food is removed from cages 18 hours prior to euthanizing animals and each cage is clearly labeled that the animals are being experimentally fasted. Mice are euthanized (CO2 & cervical dislocation). […] The excised stomach is placed into a sterile petri dish and the luminal contents are rinsed away with sterile 1×PBS. Each rinsed stomach is placed into a 14-mL Falcon tube containing 2 mL of 1×PBS and stored on ice. Each stomach is homogenized, 10-fold serial diluted in 1×PBS, spot plated onto Columbia agar with 3.5% laked horse blood±the DENT selective antibiotic supplement, and microaerophilically incubated for 5 days at 37° C. Then, colonies are counted.
Nu-8 is administered at various doses (mg/kg), orally, twice-a-day for 7 days. The formulations, concentration and dose volumes for treatment is established prior to dosing. The positive control group consists of a triple therapy regimen (omeprazole, amoxicillin, and clarithromycin). Negative control used dosing solution without drugs.

[2] = system: E. coli; test: Broth microdilution MIC at incremental pH, E. coli; format: cell-based
Procedure: MIC testing is conducted using the broth (Mueller Hinton Broth) microdilution procedures relevant to each organism group as established by the Clinical and Laboratory Standards Institute (CLSI; 3-7). MIC plates are prepared in accordance with CLSI (3-7). To prepare the test plates, automated liquid handlers are used to conduct serial dilutions and liquid transfers. Automated liquid handlers utilized in this study include the Multidrop 384 (Labsystems, Helsinki, Finland) and the Biomek 2000 (Beckman Coulter, Fullerton CA). The solution is diluted to desired pH using 1 M Citric Acid or 1 M NaOH buffer. A standardized inoculum of each test organism is prepared per CLSI methods (3, 5-7) to equal a 0.5 McFarland standard in the appropriate media followed by an additional 1:20 dilution (1:10 for anaerobes).
The plates are then inoculated with 10 μL of the diluted 0.5 McFarland suspension using the Biomek 2000 from low to high drug concentration, resulting in a final concentration of approximately 5×10^5 CFU/mL per well. An un-inoculated plate is incubated for the purpose of assessing solubility of the drug in the test media. The plates are stacked 3 to 4 high, covered with a sterile lid on the top plate, and incubated for 18 to 24 hours according to CLSI. The MIC is recorded as the lowest concentration of respective compound that inhibited visible growth of the organism.

[3] = Body weight in the Aspergillus fumigatus lung infection model (Example 24); format: in vivo, BALB/c mice; conditions: Part A

In the case of `CCCCOP(=O)(O)OC[C@H]1O[C@@H](n2ccc(N)nc2=O)C[C@@H]1OP(=O)(O)OCCCC` [Nu-8, sodium ((2R,3S,5R)-5-(4-amino-2-oxopyrimidin-1(2H)-yl)-3-((butoxyoxidophosphor-yl)oxy)tetrahydrofuran-2-yl)methyl butyl phosphate], the “mean bacterial stomach titers of H. pylori SS1 (Log10)” value ([1]; 0.2 mg (1 mg/mL, 0.2 mL) PO bid for 7 days, +7 Days) is reported as 5.62 log10 CFU, the “mean bacterial stomach titers of H. pylori SS1 (Log10)” value ([1]; 0.2 mg (1 mg/mL, 0.2 mL) PO bid for 7 days, +14 Days) is reported as 6.2 log10 CFU and the “mean bacterial stomach titers of H. pylori SS1 (Log10)” value ([1]; 1.0 mg (5 mg/mL, 0.2 mL) PO bid for 7 days, +7 Days) is reported as 5.21 log10 CFU. For the same compound, the “mean bacterial stomach titers of H. pylori SS1 (Log10)” value ([1]; 1.0 mg (5 mg/mL, 0.2 mL) PO bid for 7 days, +14 Days) was 5.67 log10 CFU, the “mean bacterial stomach titers of H. pylori SS1 (Log10)” value ([1]; 2 mg (10 mg/mL, 0.2 mL) PO bid for 7 days, +7 Days) was 4.74 log10 CFU and the “mean bacterial stomach titers of H. pylori SS1 (Log10)” value ([1]; 2 mg (10 mg/mL, 0.2 mL) PO bid for 7 days, +14 Days) was 5.81 log10 CFU. For the same compound, the MIC ([2]; pH 1) was 9.8 mg/mL, the MIC ([2]; pH 3) was 37.5 mg/mL and the MIC ([2]; pH 4) was 75 mg/mL. For the same compound, the MIC ([2]; pH 5) was >75 mg/mL, the MIC ([2]; pH 7) was >75 mg/mL and the “Body Weight (g) Mean ± SD” value ([3]; 3 doses, once daily for 3 days, Day 0) was 25.17 ± 0.75 g. The “Body Weight (g) Mean ± SD” value ([3]; 3 doses, once daily for 3 days, Day 1) was 24.50 ± 0.55 g, the “Body Weight (g) Mean ± SD” value ([3]; 3 doses, once daily for 3 days, Day 2) was 23.17 ± 0.75 g and the “Body Weight (g) Mean ± SD” value ([3]; 3 doses, once daily for 3 days, Day 3 (n = 3)) was 22.33 ± 0.58 g. For the same compound, the “Body Weight (g) Mean ± SD” value ([3]; 5 doses, once daily for 5 days, Day 0) was 25.33 ± 0.82 g, the “Body Weight (g) Mean ± SD” value ([3]; 5 doses, once daily for 5 days, Day 1) was 24.33 ± 0.52 g and the “Body Weight (g) Mean ± SD” value ([3]; 5 doses, once daily for 5 days, Day 2) was 23.33 ± 0.52 g. The “Body Weight (g) Mean ± SD” value ([3]; 5 doses, once daily for 5 days, Day 3 (n = 3)) was 22.67 ± 0.58 g, the “Body Weight (g) Mean” value ([3]; 5 doses, once daily for 5 days, Day 4 (n = 2)) was 22.50 g and the “Body Weight (g) Mean” value ([3]; 5 doses, once daily for 5 days, Day 5 (n = 2)) was 22.00 g. The “Body Weight (g) Mean ± SD” value ([3]; single dose group, Day 0) was 25.50 ± 0.55 g, the “Body Weight (g) Mean ± SD” value ([3]; single dose group, Day 1) was 24.17 ± 0.41 g and the “change in mean body weights” value ([3]; vehicle and treatment groups) was “Decreases in mean body weights were observed”.
